Reference: US20250049885A1, “HYALURONIC ACID BINDING PEPTIDE AS A THERAPEUTIC TO CONTROL FIBROBLAST ACTIVATION AND FIBROTIC CAPSULE FORMATION” (SOUTH DAKOTA BOARD OF REGENTS, priority 2023, published 2025)
Ends that are not written are not given here.

Tests used:
[1] = tested on: Col1 fibers deposited by dermal fibroblasts; test: Type I Collagen immunostaining and fiber analysis (CT-Fire); assay type: cell-based, human; conditions: p-value<0.01
Source text: FIGS. 5A-G show Type I Collagen immunostaining results. FIG. 5A is a color cell culture stain: Fluorescent images of Col1 at 20× magnification. The scale bar represents 100 μm. FIG. 5B is a color image showing CT-Fire overlays of Col1 fibers from the above images, where different fiber characteristics are shown via different coloration. FIG. 5C is a graphical representation of the distribution of the number of Col1 fibers in each treatment group. FIG. 5D is a graphical representation of the distribution of Col1 fiber lengths in each treatment group. There is a notable difference between the APTMS group and the Untreated and HABP groups. FIG. 5E is a graphical representation of the measurement of fiber straightness. […] The closer the value is to one, the straighter individual fibers within the treatment groups are. FIG. 5F is a graphical representation of the Col1 fiber width comparison between treatment groups. […]
Immunostaining was done using α-SMA (D4K9N, Cell Signal) and Type I collagen primary antibodies. […] After this point, all further staining was conducted in the dark to preserve fluorescence. […]
Immunostaining for Type I Collagen (Col1) was done to determine the impact of the HABP surface treatment on ECM formation. […] Col1 fibers were analyzed and the analysis found significant differences in fiber angle, straightness, and width.

[2] = tested on: primary dermal fibroblasts; test: Cell morphology and alignment on functionalized surfaces (brightfield); assay type: cell-based, human; conditions: vs cells on the other surface groups
Protocol: FIGS. 3A-B depicts primary dermal fibroblasts seeded at 50.000 cells/154 mm^2 and incubated for 10 days on HABP and Scrambled HABP functionalized surfaces. APTMS surfaces were treated with 2% APTMS only and Untreated surfaces had no treatment other than PBS rinse. […] Decellularization occurred on Day 11. (Representative of average and standard deviation; N=3; scale bar represents 100 μm). […] (Representative of average and standard deviation; N=6).
APTMS functionalized and untreated experimental groups were established.
Untreated and HABP functionalized surfaces did have some fibroblasts with higher levels of alignment, but the majority of fibroblast cells in those groups maintained a similar distribution of alignment to the APTMS cultures.

[3] = Live/Dead fluorescent staining of fibroblasts cultured on functionalized surfaces; assay type: cell-based, human; conditions: human; fibroblasts cultured on functionalized surface; read-out: Cell viability (Live/Dead)
Protocol: (§1) FIGS. 2A-C depict assessment of the cytocompatibility of the peptide treated surfaces using Live/Dead and PrestoBlue assays. Presto Blue assay is a measure of cellular metabolic activity. FIG. 2A is a color image of a cell culture: Calcein-AM (green) and Propidium Iodide (red) were used to stain for live and dead cells respectively.
(§2) Surface functionalization was done with 2% APTMS and 1 mM HABP. 2% APTMS (in 2-propanol) was treated on the surface for 6 hours in a wet chamber at room temperature. Following the end of the culture period, three washes with DI H2O were used to remove the residual APTMS. A 1 mM HABP in DI H2O solution was added to the surface and left overnight at 4° C. in the wet chamber. After the peptide treatment is completed, the surfaces were rinsed 5 times with PBS for 5 minutes each. These functionalized surfaces were used for HA binding verification and cell seeding experiments. Two other experimental groups were established: one with only the APTMS treatment, and one with no surface treatment (Table 2).
(§3) Human primary dermal fibroblasts (HDFs) were cultured in a culture media consisting of DMEM, 10% fetal bovine serum (FBS), and 1% penicillin-streptomycin (10,000 IU/mL). The cells were rinsed with warm 1×PBS to remove any traces of FBS from the surface, and a 0.25% trypsin/EDTA treatment was used to detach the cells from the culture flask at 37° C. for 5 minutes. 4 mL of fresh media was added to the cells to inhibit the trypsin, and the suspended cells were withdrawn from the flask, counted using a hemocytometer, and added to a 15 ml centrifuge tube. The cells were centrifuged for 5 minutes at 1500 rpms, and the media was withdrawn and replaced with a calculated amount of fresh media in which the cells were resuspended. The cells were added to the functionalized MatTek surfaces, and after 6 hours, 2 mL of media containing 100 μg/mL ascorbic acid was added. The cells were cultured for 48-96 hours before further experimentation was conducted. […]

[4] = tested on: normal human adult primary dermal fibroblasts; test: as above; assay type: cell-based
Protocol: as §1, §2, §3

Row | Compound | Col1 fiber width narrower than untreated cultures [1] [%] | Cell morphology [2] | viability [3] [%] | Cell viability vs control groups (Live/Dead) ([4]; HABP vs APTMS treated and untreated surfaces) | Cell viability (Live/Dead) ([4]; fibroblasts cultured on functionalized surface) [%]
1 | CO[Si](CCCN)(OC)OC [APTMS, 3-aminopropyltrimethoxysilane] | 5 | slightly stressed morphology | – | – | –
2 | GAHWQFNALTVR [HABP, GAHWQFNALTVR] | – | – | 98.9 | no significant difference | 98.9
